Source: patent US20180265877A1, “METHODS AND COMPOSITIONS FOR AGROBACTERIUM COMPRISING NEGATIVE SELECTION MARKERS” (PIONEER HI-BRED INTERNATIONAL, INC., priority 2015, published 2018)

What was measured:
Format in all cases: cell-based
[1] = system: Agrobacterium strain AGL0; experiment: Agrobacterium growth assay on solid minimal medium, wild-type AGL0; parameters: key to Growth score: a score of zero (0) indicating no visible colonies; 1+ indicating a few isolated colonies; ++: progressing up to 5+; +++: progressing up to 5+; ++++: progressing up to 5+; +++++: 5+ indicating a confluent lawn
Method: (§1) For all Agrobacterium growth-assay experiments, standard Agrobacterium minimal medium was used, with no additives as a control treatment, or with the addition of either 5-fluorocytosine, 5-fluorouracil or thymidine. To begin these tests, experiments were conducted to test for growth of wild-type and mutant AGL0 Agrobacterium strains on either 5-fluorocytosine (5-fluorocytosine, the non-toxic substrate of the CODA protein) or 5-fluorouracil (5-fluorouracil, the toxic product).
(§2) In Table 4, results of a more detailed kill-curve for strain AGL0 on 5-fluorouracil are shown. […] Finally, a third experiment was performed using either wild-type AGL0 or an auxotrophic mutant of AGL0 in which the gene encoding thymidylate synthase was inactivated, rendering the bacteria incapable of growth in the absence of thymidine (this strain was referred to as AGL0 THY−). The two strains were plated at high densities (10^6 or 10^8 CFU/plate) onto medium containing 0, 1 or 3 μg/ml 5-fluorouracil, with each of these three treatments containing either 0 or 50 mg/l thymidine.
The newly developed AGL0 mutant strain (THY−/codA+, see Example 1) was plated on varying concentrations of 5-fluorocytosine to assess growth. This strain, along with wild-type AGL0 were cultured overnight in liquid medium, diluted to 10^7 CFU and then 100 μl of suspension was plated onto minimal Agro medium+/− thymidine, with either 0, 100, 200 or 300 μg/ml 5-fluorocytosine, for a total of 8 treatments. After 72 hours at 28° C., the plates were scored for Agrobacterium growth.

[2] = system: Agrobacterium strain LBA4404; experiment: Agrobacterium growth assay on solid minimal medium, LBA4404; parameters: key: a score of zero (0) indicating no visible colonies; 1+ indicating a few isolated colonies; ++: progressing up to 5+; +++: progressing up to 5+; ++++: progressing up to 5+; +++++: 5+ indicating a confluent lawn; conditions: LBA4404 plated at 1 × 10^4, after 3 days
Method: as §1

[3] = system: Agrobacterium strain EHA101; experiment: Agrobacterium growth assay on solid minimal medium, EHA101; parameters: key: a score of zero (0) indicating no visible colonies; 1+ indicating a few isolated colonies; ++: progressing up to 5+; +++: progressing up to 5+; ++++: progressing up to 5+; +++++: 5+ indicating a confluent lawn; conditions: EHA101 plated at 1 x 10^4, after 3 days
Method: as §1

[4] = system: Agrobacterium strain EHA105; experiment: Agrobacterium growth assay on solid minimal medium, EHA105; parameters: key: a score of zero (0) indicating no visible colonies; 1+ indicating a few isolated colonies; ++: progressing up to 5+; +++: progressing up to 5+; ++++: progressing up to 5+; +++++: 5+ indicating a confluent lawn; conditions: EHA105 plated at 1 × 10^4, after 3 days
Method: as §1

AGL0 THY− = experiment: Agrobacterium growth assay on solid medium, thymidine auxotroph AGL0 THY−; conditions: for Growth score: after 24 hours
Method: as §2

[5] = system: four Agrobacterium strains (AGL0, LBA4404, EHA101 and EHA105); experiment: Agrobacterium growth assay, the four strains
Method: as §1

## O=c1[nH]cc(F)c(=O)[nH]1 [5-fluorouracil]
[1]; 0.3 μg/ml 5-fluorouracil, plating densities 1×10^3 to 1×10^8 CFU/plate
  Growth: only a few colonies grew
[1]; 1 μg/ml 5-fluorouracil or higher, all plating densities
  Growth: completely inhibited
[1]; AGL0 1 x 10^6, 5-fluorouracil 1 μg/ml, no thymidine, after 24 hours
  Growth score: 0
[1]; AGL0 1 x 10^6, 5-fluorouracil 1 μg/ml, thy 50 mg/l, after 24 hours
  Growth score: 0
[1]; AGL0 1 x 10^6, 5-fluorouracil 3 μg/ml, no thymidine, after 24 hours
  Growth score: 0
[1]; AGL0 1 x 10^6, 5-fluorouracil 3 μg/ml, thy 50 mg/l, after 24 hours
  Growth score: 0
[1]; AGL0 1 x 10^8, 5-fluorouracil 1 μg/ml, no thymidine, after 24 hours
  Growth score: 0
[1]; AGL0 1 x 10^8, 5-fluorouracil 1 μg/ml, thy 50 mg/l, after 24 hours
  Growth score: 0
[1]; AGL0 1 x 10^8, 5-fluorouracil 3 μg/ml, no thymidine, after 24 hours
  Growth score: 0
[1]; AGL0 1 x 10^8, 5-fluorouracil 3 μg/ml, thy 50 mg/l, after 24 hours
  Growth score: 0
[1]; AGL0 1 × 10^3 CFU, 0.1 μg/ml 5-fluorouracil, 72 hours
  Growth score: ++
[1]; AGL0 1 × 10^3 CFU, 0.3 μg/ml 5-fluorouracil, 72 hours
  Growth score: +
[1]; AGL0 1 × 10^3 CFU, 1 μg/ml 5-fluorouracil, 72 hours
  Growth score: 0
[1]; AGL0 1 × 10^3 CFU, 3 μg/ml 5-fluorouracil, 72 hours
  Growth score: 0
[1]; AGL0 1 × 10^4 CFU, 0.1 μg/ml 5-fluorouracil, 72 hours
  Growth score: ++
[1]; AGL0 1 × 10^4 CFU, 0.3 μg/ml 5-fluorouracil, 72 hours
  Growth score: +
[1]; AGL0 1 × 10^4 CFU, 1 μg/ml 5-fluorouracil, 72 hours
  Growth score: 0
[1]; AGL0 1 × 10^4 CFU, 3 μg/ml 5-fluorouracil, 72 hours
  Growth score: 0
[1]; AGL0 1 × 10^5 CFU, 0.1 μg/ml 5-fluorouracil, 72 hours
  Growth score: +++
[1]; AGL0 1 × 10^5 CFU, 0.3 μg/ml 5-fluorouracil, 72 hours
  Growth score: +
[1]; AGL0 1 × 10^5 CFU, 1 μg/ml 5-fluorouracil, 72 hours
  Growth score: 0
[1]; AGL0 1 × 10^5 CFU, 3 μg/ml 5-fluorouracil, 72 hours
  Growth score: 0
[1]; AGL0 1 × 10^6 CFU, 0.1 μg/ml 5-fluorouracil, 72 hours
  Growth score: ++
[1]; AGL0 1 × 10^6 CFU, 0.3 μg/ml 5-fluorouracil, 72 hours
  Growth score: +
[1]; AGL0 1 × 10^6 CFU, 1 μg/ml 5-fluorouracil, 72 hours
  Growth score: 0
[1]; AGL0 1 × 10^6 CFU, 3 μg/ml 5-fluorouracil, 72 hours
  Growth score: 0
[1]; AGL0 1 × 10^7 CFU, 0.1 μg/ml 5-fluorouracil, 72 hours
  Growth score: ++
[1]; AGL0 1 × 10^7 CFU, 0.3 μg/ml 5-fluorouracil, 72 hours
  Growth score: +
[1]; AGL0 1 × 10^7 CFU, 1 μg/ml 5-fluorouracil, 72 hours
  Growth score: 0
[1]; AGL0 1 × 10^7 CFU, 3 μg/ml 5-fluorouracil, 72 hours
  Growth score: 0
[1]; AGL0 1 × 10^8 CFU, 0.1 μg/ml 5-fluorouracil, 72 hours
  Growth score: +++
[1]; AGL0 1 × 10^8 CFU, 0.3 μg/ml 5-fluorouracil, 72 hours
  Growth score: +
[1]; AGL0 1 × 10^8 CFU, 1 μg/ml 5-fluorouracil, 72 hours
  Growth score: 0
[1]; AGL0 1 × 10^8 CFU, 3 μg/ml 5-fluorouracil, 72 hours
  Growth score: 0
[1]; AGL0 plated at 1 × 10^4, 0.1 μg/ml 5-fluorouracil, after 3 days
  Growth score: +
[1]; AGL0 plated at 1 × 10^4, 1.0 μg/ml 5-fluorouracil, after 3 days
  Growth score: 0
[1]; AGL0 plated at 1 × 10^4, 3.0 μg/ml 5-fluorouracil, after 3 days
  Growth score: 0
[1]; AGL0 plated at 4 × 10^7, 0.1 μg/ml 5-fluorouracil, after 3 days
  Growth score: ++++
[1]; AGL0 plated at 4 × 10^7, 1.0 μg/ml 5-fluorouracil, after 3 days
  Growth score: ++++
[1]; AGL0 plated at 4 × 10^7, 3.0 μg/ml 5-fluorouracil, after 3 days
  Growth score: 0
[1]; wild-type AGL0, 1 and 3 μg/ml 5-fluorouracil, 0 or 50 mg/l thymidine, 24 hours
  Growth: no growth was observed
[2]; 0.1 μg/ml 5-fluorouracil
  Growth score: +++
[2]; 1.0 μg/ml 5-fluorouracil
  Growth score: 0
[2]; 3.0 μg/ml 5-fluorouracil
  Growth score: 0
[3]; 0.1 μg/ml 5-fluorouracil
  Growth score: ++
[3]; 1.0 μg/ml 5-fluorouracil
  Growth score: 0
[3]; 3.0 μg/ml 5-fluorouracil
  Growth score: 0
[4]; 0.1 μg/ml 5-fluorouracil
  Growth score: +
[4]; 1.0 μg/ml 5-fluorouracil
  Growth score: 0
[4]; 3.0 μg/ml 5-fluorouracil
  Growth score: 0
AGL0 THY−; AGL0 THY- 1 x 10^6, 5-fluorouracil 1 μg/ml, no thymidine
  Growth score: 0
AGL0 THY−; AGL0 THY- 1 x 10^6, 5-fluorouracil 1 μg/ml, thy 50 mg/l
  Growth score: 0
AGL0 THY−; AGL0 THY- 1 x 10^6, 5-fluorouracil 3 μg/ml, no thymidine
  Growth score: 0
AGL0 THY−; AGL0 THY- 1 x 10^6, 5-fluorouracil 3 μg/ml, thy 50 mg/l
  Growth score: 0
AGL0 THY−; AGL0 THY- 1 x 10^8, 5-fluorouracil 1 μg/ml, no thymidine
  Growth score: 0
AGL0 THY−; AGL0 THY- 1 x 10^8, 5-fluorouracil 1 μg/ml, thy 50 mg/l
  Growth score: 0
AGL0 THY−; AGL0 THY- 1 x 10^8, 5-fluorouracil 3 μg/ml, no thymidine
  Growth score: 0
AGL0 THY−; AGL0 THY- 1 x 10^8, 5-fluorouracil 3 μg/ml, thy 50 mg/l
  Growth score: 0
AGL0 THY−; THY− AGL0, 1 and 3 μg/ml 5-fluorouracil, 0 or 50 mg/l thymidine, 24 hours
  Growth: no growth was observed
[5]; 1 μg/ml 5-fluorouracil, all four strains plated at the lower density (1×10^4 CFU)
  Growth: no growth
[5]; 3 μg/ml 5-fluorouracil, any strain
  Growth: no growth was observed
[5]; fold lower
  Totally inhibiting 5-fluorouracil concentration (3 μg/ml) relative to highest 5-fluorocytosine concentration tested (1000 μg/ml): over 300 fold
